Molecular target: hVR1 (Homo sapiens (Human), UniProt Q8NER1)
Experiment: FLIPR Ca2+ influx assay on CHO K1 cells transfected with the VR1 gene, capsaicin stimulus (method II)
Format: cell-based
Design: key to Ki (human being) Cap: result in words (NE / AG): AG=agonist; pAG=partial agonist; NE=no effect
Details: for Ki: capsaicin (Cap), read-out: Ki (human being) [nM] Cap; for Ki (human being) Cap: result in words (NE / AG): capsaicin; for inhibition at 5 µM: CHO-K1, read-out: Ki (human being) Cap column: inhibition (as a percentage) @ 5 μM, capsaicin, inhibition determined at 5 μM
From the text: In the process, the Ca^2+ influx is quantified in the FLIPR assay with the aid of a Ca^2+-sensitive dye (type Fluo-4, Molecular Probes Europe BV, Leiden, the Netherlands) in a fluorescent imaging plate reader (FLIPR, Molecular Devices, Sunnyvale, USA), as described hereinafter.
The agonistic or antagonistic effect of the substances to be tested on the vanilloid receptor 1 (VR1) can also be determined using the following assay. In this assay, the influx of Ca^2+ through the channel is quantified with the aid of a Ca^2+-sensitive dye (type Fluo-4, Molecular Probes Europe BV, Leiden, the Netherlands) in a fluorescent imaging plate reader (FLIPR, Molecular Devices, Sunnyvale, USA).
Chinese hamster ovary cells (CHO K1 cells, European Collection of Cell Cultures (ECACC) United Kingdom) are stably transfected with the VR1 gene. For functional testing, these cells are plated out on poly-D-lysine-coated black 96-well plates having a clear base (BD Biosciences, Heidelberg, Germany) at a density of 25,000 cells/well. The cells are incubated overnight at 37° C. and 5% CO2 in a culture medium (Ham's F12 nutrient mixture, 10% by volume of FCS (foetal calf serum), 18 μg/ml of L-proline). The next day the cells are incubated with Fluo-4 (Fluo-4 2 μM, 0.01% by volume of Pluronic F127, Molecular Probes in HBSS (Hank's buffered saline solution), Gibco Invitrogen GmbH, Karlsruhe, Germany) for 30 minutes at 37° C. Subsequently, the plates are washed three times with HBSS buffer and after further incubation for 15 minutes at RT used for Ca^2+ measurement in a FLIPR assay. The Ca^2+-dependent fluorescence is measured before and after the addition of the substances to be tested (λex wavelength=488 nm, λem=540 nm). Quantification is carried out by measuring the highest fluorescence intensity (FC, fluorescence counts) over time.
The FLIPR protocol consists of 2 substance additions. First the compounds to be tested (10 μM) are pipetted onto the cells and the Ca^2+ influx is compared with the control (capsaicin 10 μM) (% activation based on the Ca^2+ signal after the addition of 10 μM of capsaicin). After 5 minutes' incubation, 100 nM of capsaicin are applied and the Ca^2+ influx is also determined.
Desensitising agonists and antagonists led to suppression of the Ca^2+ influx.
Starting from the percentage displacement caused by different concentrations of the compounds to be tested of general formula I, IC50 inhibitory concentrations which cause a 50-percent displacement of capsaicin were calculated. Ki values for the test substances were obtained by conversion by means of the Cheng-Prusoff equation (Cheng, Prusoff; Biochem. Pharmacol. 22, 3099-3108, 1973).

Chain of hVR1 (Q8NER1 whole entry): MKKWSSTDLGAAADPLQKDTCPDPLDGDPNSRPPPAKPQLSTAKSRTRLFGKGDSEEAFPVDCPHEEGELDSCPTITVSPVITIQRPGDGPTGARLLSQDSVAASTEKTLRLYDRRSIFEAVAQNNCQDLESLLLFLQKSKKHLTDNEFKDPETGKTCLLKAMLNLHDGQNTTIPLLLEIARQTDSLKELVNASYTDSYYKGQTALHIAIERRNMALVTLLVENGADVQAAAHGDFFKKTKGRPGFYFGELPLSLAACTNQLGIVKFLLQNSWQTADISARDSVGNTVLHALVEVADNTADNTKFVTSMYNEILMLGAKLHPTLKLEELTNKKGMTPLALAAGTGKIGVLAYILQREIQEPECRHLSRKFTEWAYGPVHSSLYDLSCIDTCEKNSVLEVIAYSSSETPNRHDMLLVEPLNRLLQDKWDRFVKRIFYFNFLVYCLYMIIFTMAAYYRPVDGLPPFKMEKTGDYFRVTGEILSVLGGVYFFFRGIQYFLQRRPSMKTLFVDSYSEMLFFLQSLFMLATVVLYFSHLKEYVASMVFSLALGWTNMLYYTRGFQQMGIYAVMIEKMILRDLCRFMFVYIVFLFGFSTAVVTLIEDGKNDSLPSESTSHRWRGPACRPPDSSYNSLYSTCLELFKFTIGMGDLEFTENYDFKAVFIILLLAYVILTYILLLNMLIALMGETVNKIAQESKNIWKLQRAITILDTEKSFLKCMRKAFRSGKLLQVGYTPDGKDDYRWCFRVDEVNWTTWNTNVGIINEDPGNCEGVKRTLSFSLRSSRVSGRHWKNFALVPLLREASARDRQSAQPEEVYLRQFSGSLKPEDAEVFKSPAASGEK

| Molecule | Ki | other results |
| --- | --- | --- |
| O=C(NCc1cc(C(F)(F)F)nn1-c1cccc(Cl)c1)Nc1ccc(C#CC2CC2)c(F)c1 [Example 139, 1-((1-(3-chlorophenyl)-3-(trifluoromethyl)-1H-pyrazol-5-yl)methyl)-3-(4-(cyclopropylethynyl)-3-fluorophenyl)urea] |  | Ki (human being) Cap: result in words (NE / AG): AG |
| CC(C)(C)c1nc(CNC(=O)Cc2cccc(F)c2)n(-c2cccc(Cl)c2)n1 [Example 135, N-((3-tert-butyl-1-(3-chlorophenyl)-1H-1,2,4-triazol-5-yl)methyl)-2-(3-fluorophenyl)acetamide] |  | inhibition at 5 µM: 24% |
| CCCCCn1nc(C(F)(F)F)cc1CNC(=O)Cc1cccc(F)c1 [Example 131, 2-(3-fluorophenyl)-N-((1-pentyl-3-(trifluoromethyl)-1H-pyrazol-5-yl)methyl)acetamide] |  | inhibition at 5 µM: 58% |
| CC(C)(C)c1cc(CNC(=O)Cc2cccc(F)c2)n(-c2cccc(Cl)c2)n1 [Example 73, N-((3-tert-butyl-1-(3-chlorophenyl)-1H-pyrazol-5-yl)methyl)-2-(3-fluorophenyl)acetamide] |  | Ki (human being) Cap: result in words (NE / AG): AG |
| CC(C(=O)NCc1cc(C(F)(F)F)nn1C1CCCCC1)c1ccc(CNS(C)(=O)=O)c(F)c1 (stereo not drawn) [Example 137, N-((1-cyclohexyl-3-(trifluoromethyl)-1H-pyrazol-5-yl)methyl)-2-(3-fluoro-4-(methylsulfonamidmethyl)phenyl)propanamide] | 65.1 nM |  |
| COCCOCc1ccc(C(C)C(=O)NCc2cc(C(C)(C)C)nn2-c2cccc(Cl)c2)cc1F (stereo not drawn) [Example 142, N-((3-tert-butyl-1-(3-chlorophenyl)-1H-pyrazol-5-yl)methyl)-2-(3-fluoro-4-((2-methoxyethoxy)methyl)phenyl)propanamide] |  | Ki (human being) Cap: result in words (NE / AG): AG |
| Cc1c(C(F)(F)F)nn(-c2cccc(Cl)c2)c1CNC(=O)C(C)c1ccc(CNS(C)(=O)=O)c(F)c1 (stereo not drawn) [Example 134, N-((1-(3-chlorophenyl)-4-methyl-3-(trifluoromethyl)-1H-pyrazol-5-yl)methyl)-2-(3-fluoro-4-(methylsulfonamidmethyl)phenyl)propanamide] | 2.5 nM |  |
| CC(C)(C)c1cc(CNC(=O)C2(c3cccc(F)c3)CC2)n(-c2cccc(Cl)c2)n1 [Example 118, N-((3-tert-butyl-1-(3-chlorophenyl)-1H-pyrazol-5-yl)methyl)-1-(3-fluorophenyl)cyclopropancarboxamide] |  | Ki (human being) Cap: result in words (NE / AG): AG |
| CC(C(=O)NCc1cc(C(F)(F)F)nn1-c1cccc(Cl)c1)c1ccc(C(=O)Nc2ccc(F)cc2)cc1 (stereo not drawn) [Example 40, 4-(1-((1-(3-chlorophenyl)-3-(trifluoromethyl)-1H-pyrazol-5-yl)methylamino)-1-oxopropan-2-yl)-N-(4-fluorophenyl)benzamide] | 0.8 nM |  |
| CC(C(=O)NCc1cc(C(F)(F)F)nn1NCc1ccccn1)c1ccc(CNS(C)(=O)=O)c(F)c1 (stereo not drawn) [Example 129, 2-(3-fluoro-4-(methylsulfonamidmethyl)phenyl)-N-((1-(pyridin-2-ylmethylamino)-3-(trifluoromethyl)-1H-pyrazol-5-yl)methyl)propanamide] | 63.6 nM |  |
| CC(C(=O)NCc1cc(C(F)(F)F)nn1-c1cccc(Cl)c1)c1ccc(C(=O)Nc2ccccc2)c(F)c1 (stereo not drawn) [Example 39, 4-(1-((1-(3-chlorophenyl)-3-(trifluoromethyl)-1H-pyrazol-5-yl)methylamino)-1-oxopropan-2-yl)-2-fluoro-N-phenylbenzamide] | 7.2 nM |  |
| CC(C(=O)NCc1cc(C(F)(F)F)nn1-c1cccc(Cl)c1)c1ccc(C(=O)Nc2ccc(C(F)(F)F)cc2)cc1 (stereo not drawn) [Example 41, 4-(1-((1-(3-chlorophenyl)-3-(trifluoromethyl)-1H-pyrazol-5-yl)methylamino)-1-oxopropan-2-yl)-N-(4-(trifluoromethyl)phenyl)benzamide] | 85 nM |  |
| CN(C(=O)NCc1cc(C(F)(F)F)nn1-c1cccc(Cl)c1)c1cccc(F)c1 [Example 123, 3-((1-(3-chlorophenyl)-3-(trifluoromethyl)-1H-pyrazol-5-yl)methyl)-1-(3-fluorophenyl)-1-methylurea] |  | inhibition at 5 µM: 44% |
| CC(C(=O)NCc1cc(C(C)(C)C)nn1-c1cccc(Cl)c1)c1ccc(CNS(C)(=O)=O)c(F)c1 (stereo not drawn) [Example 33, N-((3-tert-butyl-1-(3-chlorophenyl)-1H-pyrazol-5-yl)methyl)-2-(3-fluoro-4-(methylsulphonamidomethyl)phenyl)propanamide] | 4 nM |  |
| CC(C(=O)NCc1cc(C(C)(C)C)nn1-c1ccccn1)c1ccc(CNS(C)(=O)=O)c(F)c1 (stereo not drawn) [Example 127, N-((3-tert-butyl-1-(pyridin-2-yl)-1H-pyrazol-5-yl)methyl)-2-(3-fluoro-4-(methylsulfonamidmethyl)phenyl)propanamide] | 58.1 nM |  |
| CC(C)(C)c1cc(CNC(=O)Nc2cccc(F)c2)n(-c2ccc(F)cc2)n1 [Example 122, 1-((3-tert-butyl-1-(4-fluorophenyl)-1H-pyrazol-5-yl)methyl)-3-(3-fluorophenyl)urea] |  | Ki (human being) Cap: result in words (NE / AG): AG |
| CC(C)(C)c1cc(CNC(=O)Nc2ccc(N3CCOCC3)c(F)c2)n(-c2cccc(Cl)c2)n1 [Example 144, 1-((3-tert-butyl-1-(3-chlorophenyl)-1H-pyrazol-5-yl)methyl)-3-(3-fluoro-4-morpholinphenyl)urea] |  | Ki (human being) Cap: result in words (NE / AG): AG |
| CC(C(=O)NCc1cc(C(F)(F)F)nn1-c1cccc(Cl)c1)c1ccc(C(=O)Nc2ccccc2)cc1 (stereo not drawn) [Example 143, 4-(1-((1-(3-chlorophenyl)-3-(trifluoromethyl)-1H-pyrazol-5-yl)methylamino)-1-oxopropan-2-yl)-N-phenylbenzamide] |  | inhibition at 1 µM (CHO-K1, read-out: Ki (human being) inhibition (as a percentage) @ 1 μM, capsaicin, inhibition determined at 1 μM): 56% |
| COc1ccc(Cn2nc(C(F)(F)F)cc2CNC(=O)Cc2cccc(F)c2)cc1 [Example 132, 2-(3-fluorophenyl)-N-((1-(4-methoxybenzyl)-3-(trifluoromethyl)-1H-pyrazol-5-yl)methyl)acetamide] |  | inhibition at 5 µM: 34% |
| CC(C(=O)NCc1cc(C(C)(C)C)nn1-c1cccc(Cl)c1)c1ccc(C2CC2)c(F)c1 (stereo not drawn) [Example 125, N-((3-tert-butyl-1-(3-chlorophenyl)-1H-pyrazol-5-yl)methyl)-2-(4-cyclopropyl-3-fluorophenyl)propanamide] |  | Ki (human being) Cap: result in words (NE / AG): AG |
| CC(C(=O)NCc1cc(C(F)(F)F)nn1-c1cccc(Cl)c1)c1cc(F)cc(F)c1 (stereo not drawn) [Example 30, N-((1-(3-chlorophenyl)-3-(trifluoromethyl)-1H-pyrazol-5-yl)methyl)-2-(3,5-difluorophenyl)propanamide] | 6.3 nM |  |
| COc1c(F)cc(C(C)C(=O)NCc2cc(C(F)(F)F)nn2-c2cccc(Cl)c2)cc1F (stereo not drawn) [Example 47, N-((1-(3-chlorophenyl)-3-(trifluoromethyl)-1H-pyrazol-5-yl)methyl)-2-(3,5-difluoro-4-methoxyphenyl)propanamide] | 17 nM |  |

Further lines, with some results ahead:

| Ki | Molecule | other results |
| --- | --- | --- |
| 56 nM | CC(C)(C(=O)NCc1cc(C(F)(F)F)nn1-c1cccc(Cl)c1)c1cccc(F)c1 [Example 117, N-((1-(3-chlorophenyl)-3-(trifluoromethyl)-1H-pyrazol-5-yl)methyl)-2-(3-fluorophenyl)-2-methylpropanamide] |  |
| 107 nM | O=C(NCc1cc(C(F)(F)F)nn1-c1cccc(Cl)c1)C1(c2cccc(F)c2)CCC1 [Example 119, N-((1-(3-chlorophenyl)-3-(trifluoromethyl)-1H-pyrazol-5-yl)methyl)-1-(3-fluorophenyl)cyclobutancarboxamide] |  |
| 16.3 nM | N-((1-(3-chlorophenyl)-3-cyclopropyl-1H-pyrazol-5-yl)methyl)-2-(3-fluoro-4-(methylsulfonylmethyl)phenyl)propanamide [Example 128] |  |
| 112 nM | Cc1c(C(F)(F)F)nn(-c2cccc(Cl)c2)c1CNC(=O)Cc1cccc(F)c1 [Example 130, N-((1-(3-chlorophenyl)-4-methyl-3-(trifluoromethyl)-1H-pyrazol-5-yl)methyl)-2-(3-fluorophenyl)acetamide] |  |
| 26 nM | O=C(Cc1cc(F)c(O)c(F)c1)NCc1cc(C(F)(F)F)nn1-c1cccc(Cl)c1 [Example 147, N-((1-(3-chlorophenyl)-3-(trifluoromethyl)-1H-pyrazol-5-yl)methyl)-2-(3,5-difluoro-4-hydroxyphenyl)acetamide] |  |
